ChEMBL document CHEMBL4715849, “Recent Progress in the Discovery of Antifungal Agents Targeting the Cell Wall” (J Med Chem, 2020)
Values after ≈ are worked out from the molar mass of the structure shown. One block for each compound: values may come before it.

What was measured:
Candida albicans [1] = assay: Antifungal activity against Candida albicans AMB-25 incubated for 48 hrs by serial two-fold dilution method; format: functional
Candida albicans [2] = assay: Antifungal activity against Candida albicans ATCC 262 incubated for 24 hrs by turbidimetric method; format: functional
Candida albicans [3] = assay: Antifungal activity against Candida albicans incubated for 24 hrs by turbidimetric method; format: functional
[4] = Inhibition of Candida albicans IFO1060 1,3-beta-D-glucan synthase
[5] = Inhibition of fungi 1,3-beta-D-glucan synthase
Aspergillus fumigatus = assay: Antifungal activity against Aspergillus fumigatus CF1083 infected in iv dosed mouse model of pulmonary aspergillosis administered once daily for 4 days and measured on day 14; format: functional; details: 336 h, time 14 day
Pichia kudriavzevii = assay: Antifungal activity against Candida krusei K1153 by agar incorporation method; format: functional
Candida parapsilosis [6] = assay: Antifungal activity against Candida parapsilosis K1154 by agar incorporation method; format: functional; details: Lodderomyces parapsilosis
Candida tropicalis [7] = assay: Antifungal activity against Candida tropicalis K1155 by agar incorporation method; format: functional
Candida albicans [8] = assay: Antifungal activity against Candida albicans K1133 by agar incorporation method; format: functional
Candida albicans [9] = assay: Antifungal activity against Candida albicans K341 by agar incorporation method; format: functional
Candida albicans [10] = assay: Antifungal activity against Candida albicans K335 by agar incorporation method; format: functional
Cyberlindnera jadinii = assay: Antifungal activity against Candida utilis K482 by agar incorporation method; format: functional; details: Williopsis jadinii
Candida parapsilosis [11] = assay: Antifungal activity against Candida parapsilosis K332 by agar incorporation method; format: functional; details: Lodderomyces parapsilosis
[12] = tested on: Meyerozyma guilliermondii; assay: Antifungal activity against Candida guilliermondii K334 by agar incorporation method; format: functional
Candida tropicalis [13] = assay: Antifungal activity against Candida tropicalis K337 by agar incorporation method; format: functional
Candida albicans [14] = assay: Antifungal activity against Candida albicans K1082 by agar incorporation method; format: functional

MIC (Candida albicans [1]): 0.4 µg/mL (≈ 1.21 µM)
SMILES: COC(=O)/C=C/C(=O)NC[C@H](N)C(=O)N[C@@H](CC(C)C)C(=O)O

MIC (Candida albicans [2]): 0.05 µg/mL (≈ 0.121 µM) | MIC (Candida albicans [3]): 0.025 µg/mL (≈ 0.0603 µM)
SMILES: CCC[C@H](NC(=O)[C@H](CNC(=O)/C=C/C(=O)OC)NC(=O)[C@@H](N)CCC)C(=O)O

MIC (Candida albicans [2]): 0.025 µg/mL (≈ 0.0698 µM) | MIC (Candida albicans [3]): 0.025 µg/mL (≈ 0.0698 µM)
SMILES: COC(=O)/C=C/C(=O)NC[C@H](NC(=O)[C@H](C)N)C(=O)N[C@@H](C)C(=O)O

MIC (Candida albicans [2]): 0.025 µg/mL (≈ 0.0564 µM) | MIC (Candida albicans [3]): 0.025 µg/mL (≈ 0.0564 µM)
SMILES: CCC[C@H](NC(=O)[C@@H](N)CCCCN)C(=O)N[C@@H](CNC(=O)/C=C/C(=O)OC)C(=O)O

MIC (Candida albicans [1]): 0.4 µg/mL (≈ 1.21 µM)
SMILES: CCCCC(N)C(=O)N[C@@H](CNC(=O)/C=C/C(=O)OC)C(=O)O (some centres undefined)

IC50 [4]: 8 nM
SMILES: CCCCCCCCCCCCC[C@H]1OC(=O)[C@H](CCCNC(=O)[C@@H](N)CCCN)NC(=O)[C@@H]([C@@H](C)O)NC(=O)CNC(=O)[C@H]([C@H](O)CC(N)=O)NC(=O)[C@H]2[C@@H](O)CCN2C(=O)[C@H]([C@@H](C)O)NC(=O)[C@@H]2C[C@@H](O)CN2C(=O)[C@H](C(C)C)NC(=O)[C@H](Cc2ccc(O)cc2)NC(=O)[C@@H](C)NC(=O)[C@H]([C@@H](C)O)NC1=O

MIC (Candida albicans [1]): 0.4 µg/mL (≈ 1.15 µM)
SMILES: COC(=O)/C=C/C(=O)NC[C@H](N)C(=O)N[C@@H](CCSC)C(=O)O

IC50 [5]: 0.2 nM
SMILES: CCCCCCCCCCCCC[C@H]1OC(=O)[C@H](CCCN(CCN)C(=O)[C@H](CCCN)N(CCN)CCN)NC(=O)[C@@H]([C@@H](C)O)NC(=O)CNC(=O)[C@H]([C@H](O)CC(N)=O)NC(=O)[C@H]2[C@@H](O)CCN2C(=O)[C@H]([C@@H](C)O)NC(=O)[C@@H]2C[C@@H](O)CN2C(=O)[C@H](C(C)C)NC(=O)[C@H](Cc2ccc(O)cc2)NC(=O)[C@@H](C)NC(=O)[C@H]([C@@H](C)O)NC1=O
ED50 (Aspergillus fumigatus): 5.2 mg/kg

MIC (Candida albicans [2]): 0.025 µg/mL (≈ 0.0597 µM) | MIC (Candida albicans [3]): 0.025 µg/mL (≈ 0.0597 µM)
SMILES: COC(=O)/C=C/C(=O)NC[C@H](N)C(=O)N[C@@H](CCSC)C(=O)N[C@@H](C)C(=O)O

MIC (Candida albicans [1]): 0.4 µg/mL (≈ 1.05 µM)
SMILES: COC(=O)/C=C/C(=O)NC[C@H](NC(=O)[C@H](N)Cc1ccc(O)cc1)C(=O)O

MIC (Candida albicans [2]): 0.025 µg/mL (≈ 0.0458 µM) | MIC (Candida albicans [3]): 0.025 µg/mL (≈ 0.0458 µM)
SMILES: COC(=O)/C=C/C(=O)NC[C@H](NC(=O)[C@H](CCSC)NC(=O)[C@@H](N)CNC(=O)/C=C/C(=O)OC)C(=O)O

MIC (Candida albicans [1]): 0.4 µg/mL (≈ 1.1 µM)
SMILES: COC(=O)/C=C/C(=O)NC[C@H](N)C(=O)N[C@@H](Cc1ccccc1)C(=O)O

MIC (Pichia kudriavzevii): 0.1 µg/mL (≈ 0.111 µM) | MIC (Candida parapsilosis [6]): 0.1 µg/mL (≈ 0.111 µM) | MIC (Candida tropicalis [7]): 0.1 µg/mL (≈ 0.111 µM) | MIC (Candida albicans [8]): 0.1 µg/mL (≈ 0.111 µM) | MIC (Candida albicans [9]): 0.1 µg/mL (≈ 0.111 µM) | MIC (Candida albicans [10]): 0.1 µg/mL (≈ 0.111 µM) | MIC (Cyberlindnera jadinii): 0.1 µg/mL (≈ 0.111 µM) | MIC (Candida parapsilosis [11]): 0.1 µg/mL (≈ 0.111 µM) | MIC [12]: 0.1 µg/mL (≈ 0.111 µM) | MIC (Candida tropicalis [13]): 0.1 µg/mL (≈ 0.111 µM) | MIC (Candida albicans [14]): 0.1 µg/mL (≈ 0.111 µM)
SMILES: CCC(O)/C=C/C=C/C=C/C(=O)OC[C@H]1O[C@@H](O[C@H]2[C@H](OC(=O)/C=C/C=C/C[C@H](O)/C(C)=C/C=C/CC[C@@H](C)CC)[C@@H](O)[C@@]3(OCc4cc(O)cc(O)c43)O[C@@H]2CO)[C@H](O)[C@@H](O)[C@H]1O (some centres undefined)

MIC (Candida albicans [1]): 0.4 µg/mL (≈ 1.33 µM)
SMILES: CCC(N)C(=O)N[C@@H](CNC(=O)/C=C/C(=O)OC)C(=O)O (some centres undefined)

IC50 [5]: 0.28 nM
SMILES: CCCCCCCCCCCCC[C@H]1OC(=O)[C@H](CCCN(CCCN)C(=O)[C@@H](CCCN)N(CCN)CCN)NC(=O)[C@@H]([C@@H](C)O)NC(=O)CNC(=O)[C@H]([C@H](O)CC(N)=O)NC(=O)[C@H]2[C@@H](O)CCN2C(=O)[C@H]([C@@H](C)O)NC(=O)[C@@H]2C[C@@H](O)CN2C(=O)[C@H](C(C)C)NC(=O)[C@H](Cc2ccc(O)cc2)NC(=O)[C@@H](C)NC(=O)[C@H]([C@@H](C)O)NC1=O
ED50 (Aspergillus fumigatus): 5.2 mg/kg

MIC (Candida albicans [1]): 0.4 µg/mL (≈ 1.05 µM)
SMILES: COC(=O)/C=C/C(=O)NC[C@H](N)C(=O)N[C@@H](Cc1ccc(O)cc1)C(=O)O

IC50 [4]: 5 nM
SMILES: CCCCCCCCCCCCC[C@H]1OC(=O)[C@H](CCCNC(=O)[C@H](N)CCCN)NC(=O)[C@@H]([C@@H](C)O)NC(=O)CNC(=O)[C@H]([C@H](O)CC(N)=O)NC(=O)[C@H]2[C@@H](O)CCN2C(=O)[C@H]([C@@H](C)O)NC(=O)[C@@H]2C[C@@H](O)CN2C(=O)[C@H](C(C)C)NC(=O)[C@H](Cc2ccc(O)cc2)NC(=O)[C@@H](C)NC(=O)[C@H]([C@@H](C)O)NC1=O
